Test results from patent US9604923B2 (H. LEE MOFFITT CANCER CENTER AND RESEARCH INSTITUTE, INC., priority 2006, dated 2017).

Experiments:
STAT3 = STAT3 (Mus musculus, UniProt P42227); experiment: Inhibition of STAT3 dimerization, EMSA assay; type: binding; parameters: endogenous in cells; host or cells: nuclear extracts per the general EMSA method
Stat1:1 = molecular target: T1, Stat1:1 (Mus musculus, UniProt P42225); experiment: STATs DNA-binding activity in vitro, EMSA; conditions: Table 4; read-out: IC50 values for the inhibition of STATs DNA-binding activity in vitro, Stat1:1
T1 construct: endogenous in cells; host or cells: EGF-stimulated NIH3T3/hEGFR mouse fibroblasts, nuclear extracts
T1 sequence (P42225 2-749 limits assumed): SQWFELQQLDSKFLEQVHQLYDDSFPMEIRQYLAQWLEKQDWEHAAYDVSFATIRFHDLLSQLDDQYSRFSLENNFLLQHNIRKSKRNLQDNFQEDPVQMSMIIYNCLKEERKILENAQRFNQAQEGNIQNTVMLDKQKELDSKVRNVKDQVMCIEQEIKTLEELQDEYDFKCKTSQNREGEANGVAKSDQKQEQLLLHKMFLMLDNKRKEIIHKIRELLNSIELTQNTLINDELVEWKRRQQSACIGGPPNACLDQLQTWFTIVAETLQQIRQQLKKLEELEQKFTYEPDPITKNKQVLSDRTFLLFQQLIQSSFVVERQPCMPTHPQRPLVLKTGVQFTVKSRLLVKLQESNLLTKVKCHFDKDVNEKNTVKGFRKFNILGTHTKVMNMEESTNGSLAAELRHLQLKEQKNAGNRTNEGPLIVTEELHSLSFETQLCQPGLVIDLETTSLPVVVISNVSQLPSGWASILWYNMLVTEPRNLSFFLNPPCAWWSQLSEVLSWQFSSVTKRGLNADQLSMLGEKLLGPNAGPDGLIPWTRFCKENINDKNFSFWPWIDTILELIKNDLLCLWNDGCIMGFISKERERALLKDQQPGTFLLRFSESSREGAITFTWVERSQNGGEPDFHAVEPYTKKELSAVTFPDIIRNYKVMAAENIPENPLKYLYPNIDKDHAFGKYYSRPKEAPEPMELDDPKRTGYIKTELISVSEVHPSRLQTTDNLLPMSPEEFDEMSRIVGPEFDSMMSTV

Stat1:3 = molecular target: T2, Stat1:3 (Mus musculus, UniProt P42227); experiment: STATs DNA-binding activity in vitro, EMSA with hSIE probe; conditions: Table 4; read-out: IC50 values for the inhibition of STATs DNA-binding activity in vitro, Stat1:3
T2 construct: endogenous in cells; host or cells: EGF-stimulated NIH3T3/hEGFR mouse fibroblasts, nuclear extracts

Stat5:5 = experiment: STATs DNA-binding activity in vitro, EMSA with MGFe probe; parameters: species or system mouse; conditions: Table 4; read-out: IC50 values for the inhibition of STATs DNA-binding activity in vitro, Stat5:5
Stat3:3 = molecular target: T3, Stat3:3 (Mus musculus, UniProt P42227); experiment: STATs DNA-binding activity in vitro, EMSA with hSIE probe; conditions: for IC50: Table 4, read-out: IC50 values for the inhibition of STATs DNA-binding activity in vitro, Stat3:3; for selectivity among STAT family members, in words: nuclear extracts of EGF-stimulated NIH3T3/hEGFR
T3 construct: endogenous in cells; host or cells: NIH3T3/v-Src or EGF-stimulated NIH3T3/hEGFR mouse fibroblasts, nuclear extracts
T3 sequence (P42227 2-770 limits assumed): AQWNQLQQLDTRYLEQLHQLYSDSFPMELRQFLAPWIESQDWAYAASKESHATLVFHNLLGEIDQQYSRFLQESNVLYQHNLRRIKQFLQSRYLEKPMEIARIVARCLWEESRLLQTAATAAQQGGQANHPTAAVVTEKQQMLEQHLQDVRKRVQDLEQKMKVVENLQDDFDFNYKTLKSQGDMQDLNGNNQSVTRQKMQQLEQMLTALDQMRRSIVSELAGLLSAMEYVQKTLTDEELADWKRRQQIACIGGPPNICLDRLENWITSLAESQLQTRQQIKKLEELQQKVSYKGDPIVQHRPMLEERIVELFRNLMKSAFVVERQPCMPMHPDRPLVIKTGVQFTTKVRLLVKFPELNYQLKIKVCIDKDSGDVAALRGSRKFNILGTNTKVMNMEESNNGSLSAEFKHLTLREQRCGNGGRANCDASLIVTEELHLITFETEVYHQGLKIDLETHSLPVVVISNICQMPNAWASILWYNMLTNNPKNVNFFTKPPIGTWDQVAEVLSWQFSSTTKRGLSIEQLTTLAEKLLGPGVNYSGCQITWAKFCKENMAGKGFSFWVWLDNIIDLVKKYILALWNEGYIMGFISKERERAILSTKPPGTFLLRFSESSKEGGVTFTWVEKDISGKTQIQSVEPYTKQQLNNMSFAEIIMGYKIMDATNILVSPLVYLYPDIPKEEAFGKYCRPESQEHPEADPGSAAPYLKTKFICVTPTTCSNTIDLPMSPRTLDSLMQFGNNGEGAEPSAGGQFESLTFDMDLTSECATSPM

T2 sequence (P42227 2-770 limits assumed): as above
Sequence of STAT3 (P42227 2-770 limits assumed): as above

Row | Structure (SMILES) | IC50 (STAT3) [µM] | IC50 (Stat1:1) [µM] | IC50 (Stat1:3) [µM] | IC50 (Stat5:5) [µM] | IC50 (Stat3:3) [µM] | inhibition of Stat3 DNA-binding activity, in words (Stat3:3) | selectivity among STAT family members, in words (Stat3:3)
1 | O=C(CCS(=O)(=O)c1ccccc1)Nc1ccc(C(=O)O)cc1 [Compound 25, 4-(3-(Phenylsulfonyl)propanamido)benzoic acid] | < 500 |  |  |  |  |  | 
2 | O=C(COS(=O)(=O)c1ccc(-c2ccc(Cl)cc2)cc1)Nc1ccc(C(=O)O)c(O)c1 [Compound 15, 4-(2-(4′-Chlorobiphenyl-4-ylsulfonyloxy)acetamido)-2-hydroxybenzoic acid] | > 500 |  |  |  |  |  | 
3 | Cc1ccc(S(=O)(=O)NCC(CC(=O)Nc2ccccc2)c2ccc(Cl)cc2)cc1 (centres unmarked) [Compound 36, 3-(4-Chlorophenyl)-4-(4-methylphenylsulfonamido)-N-phenylbutanamide] | < 500 |  |  |  |  |  | 
4 | COC(=O)c1ccc2cc(C(=O)Nc3cc(C(=O)O)ccc3O)ccc2c1 [Compound 75, 4-hydroxy-3-(6-(methoxycarbonyl)-2-naphthamido)benzoic acid] | < 500 |  |  |  |  |  | 
5 | Cc1ccc(S(=O)(=O)NCC(=O)Nc2ccc(C(=O)O)c(O)c2)cc1 [Compound 11] | > 500 |  |  |  |  |  | 
6 | N#Cc1cc([N+](=O)[O-])ccc1NC(=O)C(=O)Nn1c(=S)[nH]c2ccccc2c1=O [NSC 645885] |  | 205 | 250 | 250 | 245 |  | 
7 | O=C(COCc1ccccc1)Nc1ccc(C(=O)O)c(O)c1 [Compound 23, 4-(2-(Benzyloxy)acetamido)-2-hydroxybenzoic acid] | > 500 |  |  |  |  |  | 
8 | Cc1ccc(S(=O)(=O)OCC(=O)Nc2ccc(C#N)cc2)cc1 [Compound 7, 2-(4-Cyanophenylamino)-2-oxoethyl 4-methylbenzenesulfonate] | > 500 |  |  |  |  |  | 
9 | O=C(CNS(=O)(=O)c1ccc(-c2ccc(Cl)cc2)cc1)Nc1ccc(C(=O)O)cc1 [Compound 31] | > 500 |  |  |  |  |  | 
10 | O=C(CCc1ccccc1)Nc1ccc(C(=O)O)cc1 [Compound 72, 4-(3-Phenylpropanamido)benzoic acid] | > 500 |  |  |  |  |  | 
11 | O=C(COCc1ccccc1)Nc1ccc(C(=O)O)cc1 [Compound 22, 4-(2-(Benzyloxy)acetamido)benzoic acid] | > 500 |  |  |  |  |  | 
12 | O=C(/C=C/c1ccccc1)NC(=S)Nc1ccc(C(=O)O)cc1 [NSC 205965] |  | 253 | 256 | 255 | 225 |  | 
13 | CCCCCCCCCCCC(=O)NC(=S)Nc1ccc(C(=O)O)cc1 [NSC 216360] |  | > 300 | 290 | > 300 | 220 |  | 
14 | O=C(CCc1ccccc1)Nc1ccc(C(=O)O)c(O)c1 [Compound 73, 4-(3-Phenylpropanamido)-2-hydroxybenzoic acid] | > 500 |  |  |  |  |  | 
15 | CCOC(=O)c1ccc(NC(=O)CCc2ccc3ccccc3c2)cc1 [Compound 69, Ethyl 4-(3-(naphthalen-2-yl)propanamido)benzoate] | > 500 |  |  |  |  |  | 
16 | O=C(Nc1cccc(NC(=O)C(=O)O)c1)Oc1ccccc1 [NSC 71906] |  | 225 | 258 | 285 | 295 |  | 
17 | O=C(CNS(=O)(=O)c1ccc(-c2ccccc2)cc1)Nc1ccc(C(=O)O)cc1 [Compound 32] | > 500 |  |  |  |  |  | 
18 | NS(=O)(=O)c1ccc(NC(=O)CNS(=O)(=O)c2ccc(-c3ccccc3)cc2)cc1 [Compound 30, 2-(Biphenyl-4-ylsulfonamido)-N-(4-sulfamoylphenyl)acetamide] | > 500 |  |  |  |  |  | 
19 | O=C(COS(=O)(=O)c1ccc(-c2ccccc2)cc1)Nc1ccc(C(=O)O)cc1 [Compound 20, 4-(2-(Biphenyl-4-ylsulfonyloxy)acetamido)benzoic acid] | > 500 |  |  |  |  |  | 

Row | Structure (SMILES) | IC50 (STAT3) [µM] | IC50 (Stat1:1) [µM] | IC50 (Stat1:3) [µM] | IC50 (Stat5:5) [µM] | IC50 (Stat3:3) [µM] | inhibition of Stat3 DNA-binding activity, in words (Stat3:3) | selectivity among STAT family members, in words (Stat3:3)
20 | O=C(CCCc1ccccc1)Nc1ccc(C(=O)O)cc1 [Compound 27, 4-(4-Phenylbutanamido)benzoic acid] | > 500 |  |  |  |  |  | 
21 | O=C1C=C(Nc2ccc(S(=O)(=O)Nc3ccccn3)cc2)C(=O)C=C1Nc1ccc(S(=O)(=O)Nc2ccccn2)cc1 [NSC 11421] |  | 105 | 145 | 221 | 80 | notable potent inhibitors | 
22 | Cc1cc(N=Nc2ccc(-c3ccc(N=Nc4ccc(O)c(C(=O)O)c4)cc3)cc2)c(N)c(N=Nc2cccc(OCC(=O)O)c2)c1N [NSC 75914] |  | 113 | 263 | > 300 | 276 |  | 
23 | N#Cc1ccc(NC(=O)CNS(=O)(=O)c2ccc(-c3ccccc3)cc2)cc1 [Compound 28, 2-(Biphenyl-4-ylsulfonamido)-N-(4-cyanophenyl)acetamide] | > 500 |  |  |  |  |  | 
24 | O=C(CNS(=O)(=O)c1ccc(-c2ccccc2)cc1)Nc1ccc(S(=O)(=O)O)cc1 [Compound 29, 4-(2-(Biphenyl-4-ylsulfonamido)acetamido)benzenesulfonic acid] | > 500 |  |  |  |  |  | 
25 | O=C(O)c1cc(O)c(O)c(OC(=O)c2cc(O)c(O)c(O)c2CNc2ccc3cc(S(=O)(=O)O)cc(S(=O)(=O)O)c3c2)c1 [NSC 42067] |  | 197 | 86 | 88 | 65 | Potent inhibition | preferentially inhibit Stat3 and Stat5 over that of Stat1
26 | CC(CCC(=O)O)(c1ccc(OC(=O)Nc2ccccc2Cl)cc1)c1ccc(OC(=O)Nc2ccccc2Cl)cc1 [NSC 51926] |  | 300 | 300 | > 300 | 292 |  | 
27 | Cc1ccc(S(=O)(=O)OCC(=O)Nc2ccccc2)cc1 [Compound 6, 2-Oxo-2-(phenylamino)ethyl 4-methylbenzenesulfonate] | > 500 |  |  |  |  |  | 
28 | O=C(CCS(=O)(=O)c1ccccc1)Nc1ccc(C(=O)O)c(O)c1 [Compound 24, 4-(3-(Phenylsulfonyl)propanamido)-2-hydroxybenzoic acid] | < 500 |  |  |  |  |  | 
29 | CC(=O)NNc1nc(C)c(C(/C=C/c2cccc([N+](=O)[O-])c2)=N/NC(=S)NN)s1 [NSC 647608] |  | > 300 | > 300 | > 300 | 295 |  | 
30 | CN=C(Nc1ccccn1)c1ccc(NC(=O)c2ccc(C(=O)Nc3ccc(C(=NC)Nc4ccccn4)cc3)cc2)cc1 [NSC 90438] |  | > 300 | > 300 | > 300 | > 300 |  | 
31 | O=C(O)c1cc(N=C2C=CC(=C(c3ccccc3)c3ccc(Nc4ccc(Cl)c(C(=O)O)c4)cc3)C=C2)ccc1Cl [NSC 117907] |  | > 300 | 292 | > 300 | 202 |  | 
32 | CC(C)NC(=O)c1cc(NC(=O)c2ccc(C(=O)Nc3cc(C(=O)NC(C)C)cc(C4=NCCN4)c3)cc2)cc(C2=NCCN2)c1 [NSC 101595] |  | > 300 | > 300 | 288 | 275 |  | 
33 | Cc1ccc(S(=O)(=O)OCC(=O)Nc2ccc(S(N)(=O)=O)cc2)cc1 [Compound 8, 2-Oxo-2-(4-sulfamoylphenylamino)ethyl 4-methylbenzenesulfonate] | > 500 |  |  |  |  |  | 
34 | O=C1c2ccccc2-c2ccc(N(Cc3ccc([N+](=O)[O-])cc3)Cc3ccc([N+](=O)[O-])cc3)cc21 [NSC 24056] |  | 267 | 256 | 235 | 245 |  | 
35 | CCOc1cccc2c(NCCCCCCCCNc3c4ccccc4nc4c(OCC)cccc34)c3ccccc3nc12 [NSC 263435] |  | 50 | 40 | 25 | 25 | notable potent inhibitors | 
36 | C=CC1=C(C)/C(=C/c2[nH]c(Cc3[nH]c(/C=C4\NC(=O)C(C)=C4C=C)c(C)c3CCC(=O)O)c(CCC(=O)O)c2C)NC1=O [NSC 26685] |  | 95 | 68 | 125 | 85 |  | 
37 | O=C(OC1COC(n2c(=O)oc3cc([N+](=O)[O-])ccc32)C(OC(=O)c2ccccc2)C1OC(=O)c1ccccc1)c1ccccc1 (centres unmarked) [NSC 87849] |  | > 300 | > 300 | > 300 | > 300 |  | 
38 | Cc1cc(N=Nc2ccc(-c3ccc(N=Nc4ccc(O)c(C(=O)O)c4)cc3)cc2)c(N)c(N=Nc2cc(C(=O)O)ccc2Cl)c1N.[Na+] [NSC 75912] |  | 72 | 104 | > 300 | 160 | Potent inhibition | preferentially inhibits Stat1 over Stat3 or Stat5
